# Tests used:
# [1] = Inhibiting effect of free radicals: absorbance at 516 nm in the presence of radical diphenyl picryl hydrazide (XI); type: biochemical; details: ethanolic solution, 200 micromoles per liter compound, 100 micromoles per liter radical (XI), stirred 30 minutes at 20° C., 1-cm vessel
# Method: The antioxidant potential in solution of the compounds (I) is evaluated by measuring their reaction with the free radical diphenyl-picryl-hydrazide (XI) per C. T. Ho, S. Agric. Food Chem. 1999, p. 3975, using methyl gallate as a reference (XII).
# The inhibiting effect of free radicals claimed for compounds (Ia) and (Ib) obtained in a pure state was evaluated by measuring their absorbance in UV spectrophotometry at 516 nanometers in the presence of radical diphenyl picryl hydrazide (XI).
# We prepared ethanolic solutions containing 200 micromoles per liter of the compound to be tested and 100 micromoles per liter of radical (XI), stirred for 30 minutes at 20° C. and placed in a 1-cm long vessel, and we measured the absorbances.
# [2] = Assay of the free radical scavenging activity: addition of radical (XI) solution until purple color, absorbance at 516 nm; type: biochemical
# Description: b) Assay of the free radical scavenging activity of amides (Ia) and (Ib):
# Under absorbance measurement conditions of 516 nanometers, we placed 2 micromoles of reference or substrate (Ia) and (Ib) under the UV cell.
# We introduced a solution of 200 micromoles of radical (XI) until the purple color characteristic of the radical and measured the absorbance of the medium: […]
structure (smiles),measurement,setting,value
"COC(=O)c1cc(O)c(O)c(O)c1 [Methyl gallate, methyl gallate]",Absorbance at 516 nm,[1],0.06
same,(XI) consumed,"[2]; 2 micromoles of reference or substrate, solution of 200 micromoles of radical (XI) introduced until purple color",27.7 mL
same,Absorbance at 516 nm,"[2]; absorbance of the medium after addition of radical (XI) until purple color, 2 micromoles of substrate",0.34

# From patent US8207229B1, “Preparation of hydroquinone amide compounds with antioxidant properties” (Catalys SAS, priority 2008, dated 2012)
